Source: US20250312365A1, “METHODS FOR INHIBITION OF SQUAMOUS CARCINOMA CELLS USING CERAMIDE MODULATORS” (The Trustees of Indiana University, priority 2024, published 2025)
“Also recorded” adds a separate entry of the source.

Legend:
Format in all cases: cell-based, human
ACER2 = ACER2 mRNA expression in SCC4 cells; details: 0.1 or 1 μg/ml of PGDHC
Protocol: Next, the effect of PGDHC on ceramidase gene expression was determined. OECM1 and SCC4 cells were exposed to 0.1 or 1 μg/ml of PGDHC. The mRNA levels of ceramidases were then measured following PGDHC exposure. PGDHC inhibited the expression of ASAH1 and ACER2 mRNAs in OECM1 (FIG. 8). […] See, e.g., Vijayan et al., J Adv Res. 2023 Dec. 21:S2090-1232(23)00403-4, Doan et al., Oncotarget. 2017 Nov. 7;8(68):112662-112674., Lai et al., Sci Rep. 2021 May 27;11(1):11221, Liu et al., Cancer Sci. 2020 July;111(7):2259-2274., and Liu et al., Front Genet. 2023 Mar. 1:14:1148437.

SCC9 cells = assay: Untargeted metabolomic pathway analysis (LC/MS) in SCC9 cells; details: 1 μg/ml for 6 h
From the text: The plots in FIGS. 16A and 16B display the enriched pathways identified in the analysis, with their corresponding significance levels represented on the x-axis. The significance threshold (p<0.05) is denoted by the dashed line. […] Additionally, the color of the dots represents the enrichment, which indicates the extent to which the metabolites in the pathway were clustered amongst the compounds with the most positive fold-changes (positive enrichments), the most negative fold-changes (negative enrichments), or uniformly distributed across high and low fold-change compounds (enrichment values near 0.0). […] Polar and lipid metabolites were analyzed with hydrophilic interaction chromatography (HILIC/MS) and liquid chromatography (LC/MS), respectively. Mass spectrometry analysis was completed with a mass range of 67-1500 Da with 1 scan/sec and a mass resolution of 120,000 in both positive and negative ionization mode. The MS/MS mass-spectrometry data were acquired in a data-dependent iterative fashion with a 1.3 m/z isolation window. Based upon this metabolomic analysis, phosphoglycerol dihydroceramide (PGDHC) isolated from Porphyromonas gingivalis inhibits metabolomic pathways essential for cell survival in oral squamous cell carcinoma cells (OSCC). […]
SCC9 were exposed to a15:0-i15:0PE (1 μg/ml) for 6 h in vitro. […] The significance threshold (p<0.05) is denoted by the grey dashed line. […] Additionally, the color of the dots represents the enrichment, which indicates the extent to which the metabolites in the pathway were clustered amongst the compounds with the most positive fold-changes (positive enrichments), the most negative fold-changes (negative enrichments), or uniformly distributed across high and low fold-change compounds (enrichment values near 0.0).

E-cadherin = assay: Western blot of E-cadherin in OECM1 cells; details: 24 h of treatment
Protocol: To determine the effect of PGDHC on cell markers involved in metastasis, the protein levels of p-STAT3, EMT markers, E-cadherin, N-cadherin, and Vimentin in OECM1 cells following in vitro exposure to PGDHC were determined by Western blot assay.

For phosphoglycerol dihydroceramide [PGDHC], the “expression of ACER2 mRNA in SCC4 cells” value (ACER2) was “downregulated”, the “Warburg effect in SCC9 cells” value (SCC9 cells) was “altered” and the “arginine and proline metabolism in SCC9 cells” value (SCC9 cells) was “diminished accumulation; also recorded: inhibits”. The “de novo triacylglycerol biosynthesis in SCC9 cells” value (SCC9 cells) was “diminished accumulation; also recorded: inhibits”, the “folate metabolism in SCC9 cells” value (SCC9 cells) was “diminished accumulation; also recorded: inhibits” and the “glycine and serine metabolism in SCC9 cells” value (SCC9 cells) was “diminished accumulation; also recorded: inhibits”. The “level of ATP in SCC9 cells (relative abundance)” value (SCC9 cells) was “altered”, the “level of glucose in SCC9 cells (relative abundance)” value (SCC9 cells) was “altered” and the “mitochondrial electron transport in SCC9 cells” value (SCC9 cells) was “diminished accumulation; also recorded: inhibits”. For the same substance, the “protein level of E-cadherin in OECM1 cells” value (E-cadherin) was “little to no detectable effect”.
